Source: US20030212136A1 (priority 2003, published 2003)
Values after ≈ are worked out from the molar mass of the structure shown. Where two headings read alike, the source gives them in different places. Values belong to the compound of their own block, whether it stands above or below them.

Assays:
[1] = physchem; details: water
[2] = gastric pH range of 1-2, aqueous solution; cited from earlier work
[3] = system: brain dopamine; details: rats, diet supplemented for 2 weeks; 70% depletion in nonsupplemented rodents; cited from earlier work
[4] = system: GP3A transgenic mice; details: creatine supplementation; cited from earlier work
[5] = system: patients with various muscular dystrophies; details: supplemented for 8 weeks; cited from earlier work
[6] = Partition coefficient

solubility thermodynamic [1]: 89.3 mg/mL (≈ 403 mM)
Compound: CN(CC(=O)OCc1ccccc1)C(=N)N [Creatine Benzyl Ester, creatine benzyl ester]

solubility thermodynamic [1]: 206 mg/mL (≈ 1290 mM)
Compound: CCOC(=O)CN(C)C(=N)N [Creatine Ethyl Ester, creatine ethyl ester]

Compound: CN(CC(=O)O)C(=N)N [Creatine]
creatinine/creatine ratio at equilibrium [2]: greater than or equal to 30 | reduction in brain dopamine [3]: 10% | increase of life-span [4]: up to 26 days | improvement in neuromuscular symptom score [5]: 10% | increase in strength [5]: 3% | partition coefficient [6]: 0.015

Compound: CN(CC(=O)O)C(=N)N.O [creatine monohydrate]
partition coefficient ([6]; studies in the laboratory): 0.015±0.007
